PMC13463089, “PA200 modulates immunoproteasome structure and activity” (Nature Communications, 2026)

Assays:
[1] = target: T1, i20S-PA200 complex (PA200 / PSME4 bound to the immunoproteasome) (Homo sapiens, UniProt Q14997); assay: fluorogenic peptide assay of […] activity; assay type: biochemical; conditions: PA200 21.5 nM preincubated with 70 uM IP6, i20S 1.5 nM; substrates LLVY, ANW, PAL, LRR; pH 7.6, 37 C; activator
T1 construct: recombinant purified human PA200, about 200 kDa, one or two copies per 20S; human i20S commercial (cryo-EM) or purified from HEK293-EBNA (activity); with Proteasome subunit beta type-8; Proteasome subunit beta type-9; Proteasome subunit beta type-10; Proteasome subunit alpha type-6; Proteasome subunit alpha type-2; Proteasome subunit alpha type-4; Proteasome subunit alpha type-7; Proteasome subunit alpha type-5; Proteasome subunit alpha type-1; Proteasome subunit alpha type-3; Proteasome subunit beta type-3; Proteasome subunit beta type-2; Proteasome subunit beta type-1; Proteasome subunit beta type-4

[2] = target: T2, s20S-PA200 complex (PA200 / PSME4 bound to the standard proteasome) (Homo sapiens, UniProt Q14997); assay: fluorogenic peptide assay of […] activity; assay type: biochemical; conditions: PA200 21.5 nM preincubated with 70 uM IP6, s20S 1.5 nM; pH 7.6, 37 C
T2 construct: recombinant purified human PA200 mixed with purified human s20S; with Proteasome subunit beta type-5; Proteasome subunit beta type-6; Proteasome subunit beta type-7; Proteasome subunit alpha type-6; Proteasome subunit alpha type-2; Proteasome subunit alpha type-4; Proteasome subunit alpha type-7; Proteasome subunit alpha type-5; Proteasome subunit alpha type-1; Proteasome subunit alpha type-3; Proteasome subunit beta type-3; Proteasome subunit beta type-2; Proteasome subunit beta type-1; Proteasome subunit beta type-4

[3] = target: T1, i20S-PA200 complex (PA200 / PSME4 bound to the immunoproteasome); assay: cryo-EM structure ([…] and […] A); assay type: binding; conditions: two IP6 molecules in the two positively charged grooves of PA200; density assigned by analogy to s20S-PA200 structures

T1 sequence (Q14997 whole entry): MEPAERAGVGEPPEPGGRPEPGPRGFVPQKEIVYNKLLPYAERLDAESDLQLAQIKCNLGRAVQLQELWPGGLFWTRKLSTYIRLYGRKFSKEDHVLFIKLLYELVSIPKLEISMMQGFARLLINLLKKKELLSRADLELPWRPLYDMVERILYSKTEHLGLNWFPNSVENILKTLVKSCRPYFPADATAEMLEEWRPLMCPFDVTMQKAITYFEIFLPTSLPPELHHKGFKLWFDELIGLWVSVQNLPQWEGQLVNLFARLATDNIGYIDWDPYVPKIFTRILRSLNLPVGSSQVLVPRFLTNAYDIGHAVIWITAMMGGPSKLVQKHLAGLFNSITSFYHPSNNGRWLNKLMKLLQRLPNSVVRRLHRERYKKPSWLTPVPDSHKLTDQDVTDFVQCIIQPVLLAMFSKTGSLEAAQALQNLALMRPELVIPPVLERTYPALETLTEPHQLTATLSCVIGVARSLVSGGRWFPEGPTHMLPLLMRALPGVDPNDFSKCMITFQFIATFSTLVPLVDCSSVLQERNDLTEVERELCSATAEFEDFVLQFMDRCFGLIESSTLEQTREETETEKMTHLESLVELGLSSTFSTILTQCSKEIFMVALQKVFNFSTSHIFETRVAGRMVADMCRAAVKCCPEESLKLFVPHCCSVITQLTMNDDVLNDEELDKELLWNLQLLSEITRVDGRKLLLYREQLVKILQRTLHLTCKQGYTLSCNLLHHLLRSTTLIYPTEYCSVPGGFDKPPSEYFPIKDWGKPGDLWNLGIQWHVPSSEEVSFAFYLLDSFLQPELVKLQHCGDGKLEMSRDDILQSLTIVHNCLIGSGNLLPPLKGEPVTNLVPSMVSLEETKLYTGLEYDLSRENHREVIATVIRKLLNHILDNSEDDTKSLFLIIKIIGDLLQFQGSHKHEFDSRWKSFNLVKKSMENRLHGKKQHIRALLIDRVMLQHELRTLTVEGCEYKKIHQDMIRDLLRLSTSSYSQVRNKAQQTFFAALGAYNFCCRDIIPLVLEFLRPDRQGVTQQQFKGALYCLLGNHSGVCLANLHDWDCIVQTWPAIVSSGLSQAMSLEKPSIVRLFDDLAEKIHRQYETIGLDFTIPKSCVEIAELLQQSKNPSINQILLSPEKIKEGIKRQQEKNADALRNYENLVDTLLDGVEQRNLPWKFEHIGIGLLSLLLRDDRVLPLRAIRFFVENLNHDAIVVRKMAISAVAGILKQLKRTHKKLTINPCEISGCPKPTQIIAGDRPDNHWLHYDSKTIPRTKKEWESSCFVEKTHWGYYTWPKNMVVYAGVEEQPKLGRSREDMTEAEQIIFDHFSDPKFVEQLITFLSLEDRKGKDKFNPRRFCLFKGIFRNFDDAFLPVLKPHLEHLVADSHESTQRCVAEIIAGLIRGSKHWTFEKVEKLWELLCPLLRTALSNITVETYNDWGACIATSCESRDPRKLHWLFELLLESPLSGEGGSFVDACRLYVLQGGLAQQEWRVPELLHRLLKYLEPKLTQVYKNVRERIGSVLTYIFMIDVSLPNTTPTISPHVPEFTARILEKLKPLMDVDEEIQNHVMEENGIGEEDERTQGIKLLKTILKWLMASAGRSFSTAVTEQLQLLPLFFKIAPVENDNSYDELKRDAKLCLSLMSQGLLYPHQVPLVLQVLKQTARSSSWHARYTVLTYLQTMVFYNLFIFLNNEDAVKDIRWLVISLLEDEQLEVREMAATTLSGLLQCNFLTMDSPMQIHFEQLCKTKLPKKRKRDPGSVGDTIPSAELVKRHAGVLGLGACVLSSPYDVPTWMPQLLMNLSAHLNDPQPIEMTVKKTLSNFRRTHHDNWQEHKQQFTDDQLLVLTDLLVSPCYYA
T1 sequence (P28062 73-276 partner): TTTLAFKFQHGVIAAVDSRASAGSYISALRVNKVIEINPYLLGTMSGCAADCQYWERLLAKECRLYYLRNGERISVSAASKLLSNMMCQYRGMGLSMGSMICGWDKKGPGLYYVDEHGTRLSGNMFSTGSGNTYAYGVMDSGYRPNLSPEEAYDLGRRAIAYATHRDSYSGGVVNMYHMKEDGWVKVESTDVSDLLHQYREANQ
T1 sequence (P28065 21-219 partner): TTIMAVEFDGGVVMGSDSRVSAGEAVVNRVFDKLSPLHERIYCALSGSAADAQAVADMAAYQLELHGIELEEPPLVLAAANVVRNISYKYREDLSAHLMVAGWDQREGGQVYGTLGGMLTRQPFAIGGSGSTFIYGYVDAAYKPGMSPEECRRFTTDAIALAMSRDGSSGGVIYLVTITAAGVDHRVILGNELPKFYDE
T1 sequence (P40306 40-273 partner): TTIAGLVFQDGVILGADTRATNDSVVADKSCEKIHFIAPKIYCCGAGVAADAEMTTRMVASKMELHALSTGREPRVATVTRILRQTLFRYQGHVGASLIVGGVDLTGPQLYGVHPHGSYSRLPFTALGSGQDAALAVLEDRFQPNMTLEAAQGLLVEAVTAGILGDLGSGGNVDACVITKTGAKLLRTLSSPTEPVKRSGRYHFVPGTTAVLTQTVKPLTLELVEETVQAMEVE
T2 sequence (Q14997 whole entry): as the sequence (Q14997 whole entry) above
T2 sequence (P28074 60-263 partner): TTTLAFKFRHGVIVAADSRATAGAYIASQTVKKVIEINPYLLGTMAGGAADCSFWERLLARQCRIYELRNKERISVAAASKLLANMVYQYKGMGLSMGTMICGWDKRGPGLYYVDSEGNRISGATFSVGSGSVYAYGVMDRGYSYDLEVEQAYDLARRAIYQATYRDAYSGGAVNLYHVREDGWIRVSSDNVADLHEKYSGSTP
T2 sequence (P28072 35-239 partner): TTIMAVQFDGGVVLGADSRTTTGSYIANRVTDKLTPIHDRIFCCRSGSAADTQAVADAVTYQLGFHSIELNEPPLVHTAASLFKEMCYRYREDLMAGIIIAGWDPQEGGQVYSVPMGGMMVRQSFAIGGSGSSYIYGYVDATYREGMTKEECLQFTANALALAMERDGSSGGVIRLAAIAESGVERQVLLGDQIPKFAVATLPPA
T2 sequence (Q99436 44-277 partner): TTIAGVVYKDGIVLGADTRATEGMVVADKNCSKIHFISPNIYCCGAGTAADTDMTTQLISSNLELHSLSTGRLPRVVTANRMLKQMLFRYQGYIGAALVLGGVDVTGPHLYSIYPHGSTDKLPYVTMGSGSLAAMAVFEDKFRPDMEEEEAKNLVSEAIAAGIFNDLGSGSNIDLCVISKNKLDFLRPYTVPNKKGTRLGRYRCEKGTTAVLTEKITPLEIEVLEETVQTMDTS

**Q.** With `O=P(O)(O)O[C@H]1[C@H](OP(=O)(O)O)[C@@H](OP(=O)(O)O)[C@H](OP(=O)(O)O)[C@@H](OP(=O)(O)O)[C@H]1OP(=O)(O)O` [IP6] as the molecule, how does the relative activity [1] read?
**A.** strong increase of the three activities that are specific for the i20S

**Q.** And the relative activity [2]?
**A.** Effect of phytic acid (IP6) on PA200-activated i20S (B, dark blue bars) and s20S

**Q.** And the “cryo-EM structure (2.85 and 2.89 A)” value [3]?
**A.** we assigned these densities to two molecules of IP6
